Results taken from patent US20240255464A1 (priority 2021, published 2024).
“And” between values parts separate entries of the source, which are not always exact repeats. Identical values can stand only once. Like-named read-outs stand apart in the source and are kept apart here.

Tested on: HL-1 cells
Format: cell-based
[1] = HL-1 cells, 100 nM nifedipine in Tyrode's solution, 60 s
[2] = HL-1 cells, 100 nM nifedipine in Tyrode's solution, 120 s

SMILES	APD50	APD90	Amplitude	Refractory Period	effect on action potential amplitude	effect on action potential duration at 50% or 90% repolarization	effect on repolarization duration	effect on spike amplitude	reversibility of the effect	APD50 [1] [ms]	APD90 [1] [ms]	Amplitude [1] [mV]	Refractory Period [1] [ms]	APD50 [2] [ms]	APD90 [2] [ms]	Amplitude [2] [mV]	Refractory Period [2] [ms]
NC1=N[C@H](O)[C@H]2[C@H]3O[C@]4(O)O[C@@H]([C@@H](O)[C@@]2(N1)[C@@H]4O)[C@]3(O)CO [TTX, tetrodotoxin]	81.2 ms and 65.5 ms	166.6 ms and 141.8 ms	113.4 mV and 91.9 mV	948.4 ms and 958.6 ms	lowers the amplitude	reduces the action potential duration	shortening the repolarization duration	reducing the spike amplitude	reversible								
COC(=O)C1=C(C)NC(C)=C(C(=O)OC)C1c1ccccc1[N+](=O)[O-] [Nifedipine, nifedipine]										106.0	172.9	102.9	964.8	59.1	90.1	88.9	1022.3
